Source: EP4775208A1, “USE OF PRMT5 INHIBITOR IN TREATMENT OF TUMORS OR CANCERS” (Apeiron Therapeutics (Hong Kong) Ltd., priority 2023, dated 2025)
pIC50: −log10 of the molar value. Where two headings read alike, the source gives them in different places.

What was measured:
[1] = tested on: LN18 MTAP(-/-) cells; assay: Inhibition of proliferation of LN18 MTAP(-/-) cells (CellTiter-Glo); format: cell-based; details: cell proliferation, 7 days
Procedure: Test 5: Assay for Inhibitory Activity of Compounds against LN18 MTAP(-/-) Cell Proliferation
(§1) Materials and Cells: The LN18 MTAP(-/-) cell line was provided by Cobioer Biosciences (China). Cell culture media, fetal bovine serum (FBS), and penicillin-streptomycin were purchased from Thermo Fisher Scientific (USA). 384-well plates were purchased from PerkinElmer (USA). The CellTiter-Glo assay kit was purchased from Promega (USA).
Cell Culture: LN18 MTAP(-/-) cells were cultured in a medium supplemented with 10% fetal bovine serum (FBS) and 1% penicillin-streptomycin at 37°C with 5% CO2. Only cells in the logarithmic growth phase were used for experiments.
(§2) Cell Proliferation Inhibition Assay: The antiproliferative activity of the compounds against LN18 MTAP(-/-) cells was assessed using the CellTiter-Glo assay kit. Cell suspensions were adjusted to the appropriate density and seeded into 384-well plates at a volume of 40 µL per well, then incubated overnight at 37°C with 5% CO2. Compounds (40 nL) were added to each well to achieve final concentrations ranging from 0 to 1,000 nM (starting concentration 1,000 nM, 3-fold serial dilutions, 9 dose points), with a final DMSO concentration of 0.25%. The cell plates were incubated at 37°C with 5% CO2 for 7 days. Subsequently, 40 µL of CellTiter-Glo reagent was added to measure cell viability.

[2] = tested on: SW780; assay: Mini cell panel: inhibition of proliferation of SW780 cells; format: cell-based
Text: (§3) Test 9: Mini Cell Panel: Assay for Inhibitory Activity of Compounds against Proliferation of 20 Tumor Cell Lines
(§4) Materials and Cells: Fifteen MTAP(-/-) cell lines and five MTAP wild-type cell lines were purchased from ATCC (USA). Cell culture media, fetal bovine serum (FBS), and penicillin-streptomycin were purchased from Thermo Fisher Scientific (USA). 384-well plates were purchased from PerkinElmer (USA). The CellTiter-Glo assay kit was purchased from Promega (USA). Paclitaxel was used as the control compound.

[3] = tested on: LN-18; assay: Mini cell panel: inhibition of proliferation of LN-18 cells; format: cell-based
Text: as §3, §4

[4] = tested on: LU99; assay: Mini cell panel: inhibition of proliferation of LU99 cells; format: cell-based
Text: as §3, §4

[5] = tested on: SW1573; assay: Mini cell panel: inhibition of proliferation of SW1573 cells; format: cell-based
Text: as §3, §4

[6] = tested on: DOHH-2; assay: Mini cell panel: inhibition of proliferation of DOHH-2 cells; format: cell-based
Text: as §3, §4

[7] = tested on: BxPc-3; assay: Mini cell panel: inhibition of proliferation of BxPc-3 cells; format: cell-based
Text: as §3, §4

[8] = tested on: PSN-1; assay: Mini cell panel: inhibition of proliferation of PSN-1 cells; format: cell-based
Text: as §3, §4

[9] = tested on: five MTAP wild-type cell lines; assay: Mini cell panel: summary over the MTAP wild-type cell lines; format: cell-based
Text: as §3, §4

[10] = Mouse pharmacokinetic experiment (IV and PO, plasma); format: in vivo, ICR male mice; details: ICR mice; for bioavailability: male, mouse, read-out: Bioavailability F (%); for bioavailability / AUClast: plasma
Procedure: II. Mouse Pharmacokinetic Experiment
The compounds used in this experiment are specific embodiments of the present invention, with reference to compound AMG473 as an example from Amgen's patent WO 2022/169948A1, identified as example 473.
ICR male mice, N=3/group; sourced from Zhejiang Vital River Laboratory Animal Technology Co., Ltd.
3. Drug Preparation and Administration
Single oral (PO) administration to ICR mice: Compounds were dissolved in dimethyl sulfoxide, added to polyethylene glycol 400 and sterile water, and then adjusted to a clear solution with a small amount of 1 mol/L hydrochloric acid. After overnight fasting, the mice were orally gavaged with a dose of 10 mg/kg. Single intravenous (IV) administration to ICR mice: Compounds were dissolved in dimethyl sulfoxide, added to polyethylene glycol 400 and sterile water, and then adjusted to a clear solution with a small amount of 1 mol/L hydrochloric acid. After overnight fasting, the mice received tail vein injections with a dose of 3 mg/kg.
Approximately 30 µL/time point blood samples were collected via the tail vein. Potassium ethylenediaminetetraacetate was used as an anticoagulant, and samples were centrifuged at 4000 g/min for 5 minutes at 4°C within 1 hour. Blood sampling time points were 0.0833 (IV), 0.25, 0.5, 1, 2, 4, 6, 8, 24 hours. Samples were stored in a -20°C freezer.
Plasma samples (30µL, 10µL sample + 20µL blank plasma) were mixed with 200µL ice-cold acetonitrile containing internal standards. After vortexing for 30 seconds, samples were centrifuged at 4000g/min for 20 minutes. One hundred microliters of the supernatant were transferred to a 96-well plate, followed by the addition of 200µL ultrapure water. After vortexing for 30 seconds, 5µL or 10µL were injected into LC-MS/MS for analysis. Table 7: Pharmacokinetic Data

[11] = tested on: LU99 MTAP(-/-) cells; assay: Inhibition of proliferation of LU99 MTAP(-/-) cells (CellTiter-Glo); format: cell-based; details: cell proliferation, 6 days
Procedure: Test 3: Compound's inhibitory activity on proliferation of LU99 MTAP (-/-) cells.
as §1, with “LU99” for “LN18”, “purchased from” for “provided by”, “media and” for “media,”, “(FBS)” for “(FBS), and penicillin-streptomycin”
Cell Culture: LU99 MTAP(-/-) cells were cultured in a medium supplemented with 10% fetal bovine serum (FBS) at 37°C with 5% CO2. Only cells in the logarithmic growth phase were used for experiments.
as §2, with “against LU99” for “against LN18”, “nM, 2.5-fold” for “nM, 3-fold”, “dilutions, 10” for “dilutions, 9”, “of 0.2%.” for “of 0.25%.”, “for 6” for “for 7”

[12] = Homo sapiens, SW780, MTAP (-/-)
[13] = Homo sapiens, LN-18, MTAP (-/-)
[14] = Homo sapiens, Lu-99, MTAP (-/-)
[15] = Homo sapiens, SW1573, MTAP (-/-)
[16] = Homo sapiens, DOHH-2, MTAP (-/-)
[17] = Homo sapiens, BXPC-3, MTAP (-/-)
[18] = read-out: median IC50, MTAP wild-type cells
[19] = span over the cell lines, read-out: IC50 values (range) against MTAP wild-type cells

Work on `CN(C(=O)c1cc2c(cn1)nc(N)c1cncn12)[C@@H]1COc2cc(C(F)(F)F)ccc21` [Example 4, (S)-4-amino-N-methy 1-N-(6-(trifluoromethy 1)-2,3-dihydrobenzofuran-3-yl)imidazo[1,5-a]pyrido[3,4-e]pyrazine-8-carboxamide] yielded an IC50 ([1]; Homo sapiens, LN-18, 168 h) of 7.85 nM, a pIC50 [2, 12] of 6.75 and a pIC50 [3, 13] of 8.11. It also gave a pIC50 [4, 14] of 7.66, a pIC50 [5, 15] of 6.18 and a pIC50 [6, 16] of 7.71. For the same compound, the pIC50 [7, 17] was 7.82, the pIC50 ([8]; Homo sapiens, PSN1, MTAP (-/-)) was 7.90 and the pIC50 [9, 18] was 5.77. For the same compound, the pIC50 [9, 19] was 5.18 to 6.39 and the bioavailability ([10]; PO(10mg/kg) vs IV(3mg/kg)) was 77%.

Compound `[2H]C([2H])([2H])N(C(=O)c1ccc2nc(N)c3cncn3c2c1)[C@@H]1COc2cc(C(F)(F)F)ccc21` [Example 16, (S)-4-amino-N-(methyl-d3)-N-(6-(trifluoromethyl)-2,3-dihydrobenzofuran-3-yl)imidaz o[1,5-a]quinoxaline-8-carboxamide] has an IC50 ([11]; Homo sapiens, Lu-99, 144 h) of 12.9 nM, an IC50 ([1]; Homo sapiens, LN-18, 168 h) of 6.57 nM and a bioavailability ([10]; PO(10mg/kg) vs IV(3mg/kg)) of 131%.

In the case of `[2H]C([2H])([2H])N(C(=O)c1cc2c(cc1F)nc(N)c1cncn12)[C@@H]1COc2cc(C(F)(F)F)ccc21` [Example 41, (S)-4-amino-7-fluoro-N-(methyl-d3)-N-(6-(trifluoromethyl)-2,3-di hydrobenzofuran-3-yl)imidazo[1,5-a]quinox aline-8-carboxamide], the IC50 ([11]; Homo sapiens, Lu-99, 144 h) was 9.56 nM, the IC50 ([1]; Homo sapiens, LN-18, 168 h) was 14.5 nM and the bioavailability ([10]; PO(10mg/kg) vs IV(3mg/kg)) was 257%.

With `CN(C(=O)c1ccc2nc(N)c3cncn3c2c1)[C@@H]1COc2cc(C(F)(F)F)ccc21` [Example 107, (S)-4-amino-N-methy 1-N-(6-(trifluoromethy 1)-2,3-dihydrobenzofuran-3-yl)imidazo[1,5-a]quinoxaline-8-carboxamide] the IC50 ([11]; Homo sapiens, Lu-99, 144 h) was 13.2 nM, the IC50 ([1]; Homo sapiens, LN-18, 168 h) was 11.1 nM and the pIC50 [2, 12] was 6.68. For the same compound, the pIC50 [3, 13] was 8.03, the pIC50 [4, 14] was 7.40 and the pIC50 [5, 15] was 7.35. The pIC50 [6, 16] was 7.48, the pIC50 [7, 17] was 7.49 and the pIC50 ([8]; Homo sapiens, PSN1, MTAP (-/-)) was 7.51. The pIC50 [9, 18] was 5.48, the pIC50 [9, 19] was ≤ 6.11 and the bioavailability ([10]; PO(10mg/kg) vs IV(3mg/kg)) was 119%.

For “(S)-4-amino-7-fluoro-N-methyl-N-(6-(triflu oromethyl)-2,3-dihydr obenzofuran-3-yl)imi dazo[1,5-a]quinoxalin e-8-carboxamide [Example 29]”, the IC50 [11] was 10.7 nM, the IC50 [1] was 5.42 nM and the pIC50 ([2]; MTAP (-/-)) was 6.18. For the same compound, the pIC50 ([3]; MTAP (-/-)) was 8.27, the pIC50 ([4]; MTAP (-/-)) was 7.43 and the pIC50 ([5]; MTAP (-/-)) was 7.33. It also gave a pIC50 ([6]; MTAP (-/-)) of 7.94, a pIC50 ([7]; MTAP (-/-)) of 7.24 and a pIC50 ([8]; MTAP (-/-)) of 7.62. The pIC50 [9, 18] was 5.48, the “T1/2” value ([10]; IV(3mg/kg)) was 4.38 h and the “AUClast” value ([10]; IV(3mg/kg)) was 12925 ng·h/mL. For the same compound, the “T1/2” value ([10]; PO(10mg/kg)) was 4.16 h, the “Bioavailability F (%)” value ([10]; PO(10mg/kg) vs IV(3mg/kg)) was 102% and the “AUClast” value ([10]; PO(10mg/kg)) was 43906 ng·h/mL.
